Test results as given in patent US6147121A, “Skin toning by stimulating collagen synthesis/proliferation of dermal fibroblasts” (Societe L'Oreal S.A., priority 1998, dated 2000).

Legend:
[1] = test system: normal human dermal fibroblast cultures; assay: effect of resveratrol on the synthesis of collagen: incorporation of tritiated proline into newly synthesized proteins of normal human dermal fibroblast cultures; type: cell-based
Procedure: (§1) Investigating the effect of resveratrol on the synthesis of collagen: This study was carried out by measuring the incorporation of radioactive proline into the proteins newly synthesized by normal human dermal fibroblast cultures. These newly synthesized proteins were predominantly collagen fibers. The fibroblast cultures were conducted according to conventional cell culture techniques, namely, in MEM/M199 medium marketed by Gibco, in the presence of sodium bicarbonate (1.87 mg/ml), of L-glutamine (2 mM), of penicillin (50 IU/ml) and of 10% fetal calf serum (Gibco). The test was carried out on 80% confluent cell cultures in a 24-well plate. […] The labelling with tritiated proline (L-[2,3-^3 H]proline marketed by Amersham, 33 mCi/ml) was conducted for 24 hours. The amount of tritiated proline incorporated was measured at the end of the test by acid precipitation of the proteins on filters and liquid scintillation counting. The results were evaluated relative to a control consisting of cells which were not treated with resveratrol. A positive control (vitamin C at 20 mg/ml) known to stimulate the synthesis of collagen was included in the test as a reference.

[2] = test system: normal human dermal fibroblast cultures; assay: effect of resveratrol on the proliferation of the fibroblasts of the dermis: incorporation of radioactive thymidine into normal human dermal fibroblast cultures; type: cell-based; details: for tritiated thymidine incorporated (cpm): 48 hours contact, labelling 24 hours, not treated 13,649 cpm
Procedure: Investigating the effect of resveratrol on the proliferation of the fibroblasts of the dermis:
This study was carried out by measuring the incorporation of radioactive thymidine into normal human dermal fibroblast cultures.
The fibroblast cultures were conducted according to conventional cell culture techniques, namely in MEM/M199 medium marketed by Gibco, in the presence of sodium bicarbonate (1.87 mg/ml), of L-glutamine (2 mM), of penicillin (50 IU/ml) and of 10% fetal calf serum (Gibco).
The test was carried out on 80% confluent cell cultures in a 24-well plate. Resveratrol, at the concentration of 1.25 mM and 5 mM, was placed in contact with the cells for 48 hours. The labelling with tritiated thymidine ([methyl-^3 H]thymidine marketed by Amersham, 82 Ci/mmol) was conducted for 24 hours.
The amount of tritiated thymidine incorporated was measured at the end of the test by acid precipitation of the proteins on filters and liquid scintillation counting.
The results were evaluated relative to a control consisting of cells which were not treated with resveratrol.
A positive control (fetal calf serum at 20%) known to stimulate the […] was included in the test as a reference.

[3] = test system: interstitial collagenase (A2058 cells); assay: effect of resveratrol on the production of interstitial collagenase in a culture of A2058 cells (Elisa); type: cell-based, human
Procedure: Effect of resveratrol on the expression of the collagenases:
The effect of resveratrol on the production of interstitial collagenase was evaluated in a model of culture of A2058 cells (derived from human malanomas: Templeton N. S. et al., Cancer Res., SO.- 54315431(1990)).
The cells were incubated in a phenol red-free MEM medium containing amino acids at the concentration of 2 mM, sodium pyruvate at the concentration of 1 mM and 10% charcoal-treated calf serum. They were then cultured at the density of 20,000 cells per well in the 24 wells of a multiwell plate.
Twenty-four hours after cultering, the cells were contacted with resveratrol. The production of interstitial collagenase was evaluated 96 hours later in the culture medium. This was carried out with the aid of an Elisa kit (Biotrack human MMPL; Amersham).
The resveratrol was tested at the concentrations 2×10^-7 M and 2×10^-6 M.
The results, expressed as percentages, represent the reduction in the production of interstitial collagenase compared with the control, namely, compared with a culture carried out under the same conditions in the absence of resveratrol.

[4] = test system: normal human dermal fibroblast cultures; assay: effect of resveratrol on the synthesis of collagen: incorporation of tritiated proline into newly synthesized proteins of normal human dermal fibroblast cultures; type: cell-based; set-up: unit of the concentration uncertain; details: 48 hours contact, labelling 24 hours, not treated 22,528 cpm
Procedure: as §1

[5] = test system: normal human dermal fibroblast cultures; assay: as above; type: cell-based; set-up: dose or concentration left out as unconfirmed; details: positive control; not treated 22,528 cpm
Procedure: as §1

Compound: Oc1ccc(C=Cc2cc(O)cc(O)c2)cc1 [Resveratrol, 3,4',5-trihydroxystilbene]
- activity at 1250 µM ([1]; Homo sapiens, Fibroblast, 1.25 mM, 48 hours, not treated = 100, p <0.01, read-out: tritiated proline incorporated, % relative to not treated control): 121%
- activity at 5000 µM ([1]; Homo sapiens, Fibroblast, 5.00 mM, 48 hours, not treated = 100, p <0.05, read-out: tritiated proline incorporated, % relative to not treated control): 114%
- incorporation of proline into collagen (in words) ([1]; conclusion from Table I): substantially stimulated the incorporation of proline into collagen
- tritiated thymidine incorporated (cpm) ([2]; 1.25 mM): 15,055 cpm
- tritiated thymidine incorporated (cpm) ([2]; 5.00 mM): 19,229 cpm
- activity at 1250 µM ([2]; Homo sapiens, Fibroblast, 1.25 mM, 48 hours, not treated = 100, p <0.05, read-out: tritiated thymidine incorporated, % relative to not treated control): 110%
- activity at 5000 µM ([2]; Homo sapiens, Fibroblast, 5.00 mM, 48 hours, not treated = 100, p <0.01, read-out: tritiated thymidine incorporated, % relative to not treated control): 141%
- inhibition at 0.2 µM ([3]; Homo sapiens, 0.2 μM, 96 hours, A2058 cells, read-out: % inhibition (reduction in the production of interstitial collagenase compared with the control)): 14%
- inhibition at 2 µM ([3]; Homo sapiens, 2 μM, 96 hours, A2058 cells, read-out: % inhibition (reduction in the production of interstitial collagenase compared with the control)): 57%
- production of interstitial collagenase by A2058 cells (in words) ([3]; conclusion from Table III): reduced the production of interstitial collegenase by the A 2058 cells and this in a dose-dependent manner
- tritiated proline incorporated (cpm) ([4]; 1.25 (unit uncertain)): 27,164 cpm
- tritiated proline incorporated (cpm) ([4]; 5.00 (unit uncertain)): 25,769 cpm

Compound: O=C1O[C@H]([C@@H](O)CO)C(O)=C1O [Vitamin C, reference compound]
- activity at 20000 µg/mL ([1]; Homo sapiens, Fibroblast, 48 h, positive control, 20 mg/ml, not treated = 100, p <0.01, read-out: tritiated proline incorporated, % relative to not treated control): 162%
- tritiated proline incorporated (cpm) [5]: 36,431 cpm
